Like-named read-outs stand apart in the source and are kept apart here.
Key:
[1] = target: T1, B-Raf kinase (SEQ ID NO: 1) (Homo sapiens, UniProt P15056); assay: Biochemical Assay for B-Raf (coupled pyruvate kinase/lactate dehydrogenase assay); settings: 1 mM ATP; read-out: BRAF (inhibition of biochemical activity, IC50)
T1 construct: GST (N); purchased Sigma

[2] = target: T2, C-Raf kinase (SEQ ID NO: 2) (Homo sapiens, UniProt P04049, Y340D/Y341D); assay: Biochemical Assay for C-Raf (coupled pyruvate kinase/lactate dehydrogenase assay); settings: 1 mM ATP; read-out: CRAF (inhibition of biochemical activity, IC50)
T2 construct: C-Raf residues 306-end; Y340D, Y341D with; GST (N); purchased Sigma
T2 sequence (P04049 307-648 Y340D/Y341D): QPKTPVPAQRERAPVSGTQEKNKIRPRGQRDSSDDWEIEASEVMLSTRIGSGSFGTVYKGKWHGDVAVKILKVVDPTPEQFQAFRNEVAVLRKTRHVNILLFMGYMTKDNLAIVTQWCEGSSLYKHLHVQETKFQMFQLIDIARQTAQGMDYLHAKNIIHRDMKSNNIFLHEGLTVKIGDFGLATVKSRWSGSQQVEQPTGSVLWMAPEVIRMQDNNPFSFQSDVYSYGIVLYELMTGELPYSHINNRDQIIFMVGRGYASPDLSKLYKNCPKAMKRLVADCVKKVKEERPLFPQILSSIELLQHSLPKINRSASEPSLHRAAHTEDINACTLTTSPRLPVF

MiaPaca-2 cells = assay: MiaPaca-2 Cell Proliferation Assay; assay type: cell-based; settings: Table 2, read-out: Inhibition of cell proliferation in MiaPaca-2 (IC50 class)
Procedure: Miapaca-2 cells (catalog #CRL-1420) are obtained from the American Type Culture Collect (ATTC, Manassas, VA). Briefly, cells were grown in DMVEM supplemented with 10 characterized fetal bovine serum (Invitrogen, Carlsbad, CA), 2.5% New Zealand sourced horse serum and 1 Penicillin/Streptomycin/L-Glutamine at 37° C., 5 CO2, and 95% humidity. Cells are expanded until reaching 70-95% confluency at which point they are sub-cultured or harvested for assay use. A serial dilution of test compound is dispensed into a 96-well black clear bottom plate in triplicate. Three thousand cells are added per well in 200 μL complete growth medium in the 96-well plate. Plates are incubated for 67 to 72 h at 37° C., 5% CO2, and 95% humidity. At the end of the incubation, 40 μL of a 440 μM solution of resazurin (Sigma, St. Louis, MO) in PBS is added to each well of the plate and plates are incubated for an additional 5 to 6 h at 37° C., 5% CO2, and 95% humidity. Plates are read on a Synergy2 or equivalent reader (Biotek, Winooski VT) using an excitation of 540 nm and an emission of 600 nm. Data is analyzed using Prism software (Graphpad, San Diego, CA) to calculate IC50 values.

HCT-116 cells = assay: HCT-116 Cell Proliferation Assay; assay type: cell-based; settings: Table 2, read-out: Inhibition of cell proliferation in HCT-116 (IC50 class)
Procedure: HCT-116 cells (catalog #CCL-247) are obtained from the American Type Culture Collect (ATCC, Manassas, VA). Briefly, cells are grown in McCoy's 5A supplemented with 10% characterized fetal bovine serum (Invitrogen, Carlsbad, CA) and 1% Penicillin/Streptomycin/L-Glutamine at 37° C., 5% CO2, and 95% humidity. Cells are expanded until reaching 70-95% confluency at which point they are subcultured or harvested for assay use. A serial dilution of test compound is dispensed into a 384-well black clear bottom plate in triplicate. 375 cells are added per well in 50 μL complete growth medium in the 384-well plate. Plates are incubated for 67 to 72 hours at 37° C., 5% CO2, and 95% humidity. At the end of the incubation, 40 μL of a […] solution of resazurin (Sigma, St. Louis, MO) in PBS is added to each well of the plate and plates are incubated for an additional 4 to 5 h at 37° C., 5% CO2, and 95% humidity. Plates are read on a Synergy2 or equivalent reader (Biotek, Winooski, VT) using an excitation of 540 nm and an emission of 600 nm. Data is analyzed using Prism software (Graphpad, San Diego, CA) to calculate IC50 values.

HPAF-II cells = assay: HPAF-II Cell Proliferation Assay; assay type: cell-based; settings: HPAF-II cells, Table 2, read-out: Inhibition of cell proliferation in HPAF-II (IC50 class)
Procedure: (§1) HPAF-II cells (catalog #CRL-1997) are obtained from the American Type Culture Collect (ATCC, Manassas, VA). Briefly, cells are grown in Minimum Essential Media supplemented with 10% characterized fetal bovine serum (Invitrogen, Carlsbad, CA) and 1% Penicillin/Streptomycin/L-Glutamine at 37° C., 5% CO2, and 95% humidity. Cells are expanded until reaching 70-95% confluency at which point they are sub-cultured or harvested for assay use. A serial dilution of test compound is dispensed into a 384-well black clear bottom plate in triplicate. 750 cells are added per well in 50 μL complete growth medium in the 384-well plate. Plates are incubated for 115 to 120 hours at 37° C., 5% CO2, and 95% humidity. At the end of the incubation, 40 μL of a 440 μM solution of resazurin (Sigma, St. Louis, MO) in PBS is added to each well of the plate and plates are incubated for an additional 18 to 24 hours at 37° C., 5% CO2, and 95% humidity. Plates are read on a Synergy2 or equivalent reader (Biotek, Winooski, VT) using an excitation of 540 nm and an emission of 600 nm. Data is analyzed using Prism software (Graphpad, San Diego, CA) to calculate IC50 values.

Pa16c cells = assay: Pa16c Cell Proliferation Assay; assay type: cell-based; settings: Table 2, read-out: Inhibition of cell proliferation in Pa16c (IC50 class)
Procedure: as §1, with “Pa16c” for “HPAF-II”, “cells” for “cells (catalog #CRL-1997)”, “Dr. Channing Der, University of North Carolina at Chapel Hill.” for “the American Type Culture Collect (ATCC, Manassas, VA).”, “Dulbecco's Modified Eagle Medium” for “Minimum Essential Media”, “67” for “115”, “72 h” for “120 hours”

[3] = Homo sapiens, MIA PaCa-2, MiaPaca-2 cells
[4] = Homo sapiens, HCT-116, HCT-116 cells

T1 sequence (P15056 416-766): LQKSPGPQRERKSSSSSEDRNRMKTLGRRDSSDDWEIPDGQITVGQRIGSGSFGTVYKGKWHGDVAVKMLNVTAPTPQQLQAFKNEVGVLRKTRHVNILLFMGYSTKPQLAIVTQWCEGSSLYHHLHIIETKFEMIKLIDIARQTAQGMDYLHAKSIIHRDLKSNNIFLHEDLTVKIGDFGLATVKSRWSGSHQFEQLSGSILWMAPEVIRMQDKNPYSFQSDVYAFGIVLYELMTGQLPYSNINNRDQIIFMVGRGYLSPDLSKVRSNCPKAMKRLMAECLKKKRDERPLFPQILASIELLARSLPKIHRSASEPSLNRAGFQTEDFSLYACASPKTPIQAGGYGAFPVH

| Structure (SMILES) | IC50 [1] | IC50 [2] | IC50 (MiaPaca-2 cells; [3]) | IC50 (HCT-116 cells; [4]) | IC50 (HPAF-II cells; Homo sapiens, HPAF-II) | IC50 (Pa16c cells) | IC50 (MiaPaca-2 cells; MiaPaca-2 cells) | IC50 (HCT-116 cells; HCT-116 cells) | IC50 (HPAF-II cells) |
| --- | --- | --- | --- | --- | --- | --- | --- | --- | --- |
| Cc1ccc(NC(=O)c2cc(C3CC3)cnn2)cc1-c1ccnc(-c2cnsc2)c1 [Example 136] | 0.1 to 0.5 µM | < 0.1 µM | 0.1 to 0.5 µM | 0.1 to 0.5 µM | 0.1 to 0.5 µM | 0.1 to 0.5 µM |  |  |  |
| Cc1ccc(NC(=O)c2cc(C(F)(F)F)cnn2)cc1-c1ccnc(-c2ccnc(NC(=O)C3CN(C)CC3(F)F)c2)c1 (stereo not drawn) [Example 94, N-(3-(2′-(4,4-difluoro-1-methylpyrrolidine-3-carboxamido)-[2,4′-bipyridin]-4-yl)-4-methylphenyl)-5-(trifluoromethyl)pyridazine-3-carboxamide] | 0.1 to 0.5 µM | < 0.1 µM | 0.5 to 1 µM | 0.1 to 0.5 µM | 1 to 10 µM | 1 to 10 µM |  |  |  |
| Cc1ccc(NC(=O)c2cc(C3CC3)cnn2)cc1-c1ccnc(-c2ccoc2)c1 [Example 147] | 0.1 to 0.5 µM | 0.1 to 0.5 µM | 0.1 to 0.5 µM | 0.1 to 0.5 µM | 0.1 to 0.5 µM | 0.1 to 0.5 µM |  |  |  |
| Cc1ccc(NC(=O)c2cc(C(F)(F)F)cnn2)cc1-c1ccnc(-c2cnn(C)n2)c1 [Example 139] | 0.1 to 0.5 µM | < 0.1 µM | 0.1 to 0.5 µM | 0.1 to 0.5 µM | 0.1 to 0.5 µM | 0.5 to 1 µM |  |  |  |
| Cc1ccc(NC(=O)c2cc(C3CC3)cnn2)cc1-c1ccnc(-c2ccsc2)c1 [Example 144] | 1 to 10 µM | 1 to 10 µM | 0.1 to 0.5 µM | 0.1 to 0.5 µM | 0.1 to 0.5 µM | 0.1 to 0.5 µM |  |  |  |
| Cc1ccc(NC(=O)c2cc(C(F)(F)F)cnn2)cc1-c1cncc(-c2cc(NC(=O)C(F)(F)F)ncn2)c1 [Example 125] | < 0.1 µM | < 0.1 µM | 0.5 to 1 µM | 0.5 to 1 µM | 0.5 to 1 µM | 0.5 to 1 µM |  |  |  |
| Cc1ccc(NC(=O)c2cc(C(C)(F)F)cnn2)cc1-c1ccnc(-c2cnn(C)c2)c1 [Example 150] | 0.1 to 0.5 µM | < 0.1 µM | 0.1 to 0.5 µM | 0.1 to 0.5 µM | 0.1 to 0.5 µM | 0.5 to 1 µM |  |  |  |
| Cc1ccc(NC(=O)c2cc(N)cnn2)cc1-c1ccnc(-c2ccnc(NC(=O)C3CC3)c2)c1 [Example 99] | 0.5 to 1 µM | 0.1 to 0.5 µM | 1 to 10 µM | 1 to 10 µM | 1 to 10 µM | 1 to 10 µM |  |  |  |
| Cc1ccc(NC(=O)c2ccc(C(F)(F)F)nc2)cc1-c1cncc(-c2cc(NC(=O)C3CC3)ncn2)c1 [Example 75] | < 0.1 µM | < 0.1 µM | 1 to 10 µM | 1 to 10 µM | 1 to 10 µM | 1 to 10 µM |  |  |  |
| Cc1ccc(NC(=O)c2cc(OC(F)F)cnn2)cc1-c1ccnc(-c2ccnc(NC(=O)C3CC3)c2)c1 [Example 134] | < 0.1 µM | < 0.1 µM | 0.5 to 1 µM | 0.1 to 0.5 µM | 1 to 10 µM | 0.1 to 0.5 µM |  |  |  |
| Cc1ccc(NC(=O)c2cc(C(F)(F)F)cnn2)cc1-c1cc(N[C@H](C)CO)nc(-c2c(C)n[nH]c2C)c1 [Example 122] | 0.1 to 0.5 µM | < 0.1 µM | 0.1 to 0.5 µM | 0.1 to 0.5 µM | 0.5 to 1 µM | 0.1 to 0.5 µM |  |  |  |
| Cc1ccc(NC(=O)c2cc(C(C)(F)F)cnn2)cc1-c1ccnc(-c2ccsc2)c1 [Example 148] | 1 to 10 µM | 0.5 to 1 µM | 0.1 to 0.5 µM | < 0.1 µM | 0.1 to 0.5 µM | 0.1 to 0.5 µM |  |  |  |
| Cc1ccc(NC(=O)c2cc(C(F)(F)F)cnn2)cc1-c1ccnc(-c2ccnc(NC(=O)CC3CC3)c2)c1 [Example 22] | 0.1 to 0.5 µM | < 0.1 µM | 0.1 to 0.5 µM | 0.1 to 0.5 µM | < 0.1 µM | < 0.1 µM |  |  |  |
| Cc1ccc(NC(=O)c2cc(C(C)(F)F)cnn2)cc1-c1ccnc(-c2cncn2C)c1 [Example 138] | < 0.1 µM | < 0.1 µM | 0.1 to 0.5 µM | 0.1 to 0.5 µM | 0.1 to 0.5 µM | 0.1 to 0.5 µM |  |  |  |
| Cc1cc(-c2cc(NC(=O)c3cncc(C(F)(F)F)c3)ccc2C)cc(-c2ccnc(NC(=O)C3CC3)c2)n1 [Example 81] | < 0.1 µM | < 0.1 µM |  |  |  | 1 to 10 µM | 1 to 10 µM | 0.1 to 0.5 µM | 1 to 10 µM |
| COc1cnnc(C(=O)Nc2ccc(C)c(-c3ccnc(-c4ccnc(NC(=O)C5CC5)c4)c3)c2)c1 [Example 49] | < 0.1 µM | < 0.1 µM | 0.5 to 1 µM | 0.1 to 0.5 µM | 0.1 to 0.5 µM | 1 to 10 µM |  |  |  |
| Cc1ccc(NC(=O)c2ccc(C(F)(F)F)nc2)cc1-c1cncc(-c2ccnc(NC(=O)C3CC3)c2)c1 [Example 72] | < 0.1 µM | < 0.1 µM | 0.5 to 1 µM | 0.1 to 0.5 µM | 0.5 to 1 µM | 1 to 10 µM |  |  |  |
| Cc1cc(-c2cc(NC(=O)c3cncc(C(C)(F)F)c3)ccc2C)cc(-c2ccnc(NC(=O)C3CC3)c2)n1 [Example 16] | < 0.1 µM | < 0.1 µM | 0.5 to 1 µM | 0.1 to 0.5 µM | 1 to 10 µM | 1 to 10 µM |  |  |  |
| Cc1ccc(NC(=O)c2cccnn2)cc1-c1ccnc(-c2ccnc(NC(=O)C3CC3)c2)c1 [Example 83] | 1 to 10 µM | 0.1 to 0.5 µM | 1 to 10 µM | 1 to 10 µM | 1 to 10 µM | 1 to 10 µM |  |  |  |
| Cc1ncc(NC(=O)c2cc(C(F)(F)F)cnn2)cc1-c1ccnc(-c2ccnc(NC(=O)C3CC3)c2)c1 [Example 34] | < 0.1 µM | < 0.1 µM | 1 to 10 µM | 1 to 10 µM | 1 to 10 µM | 1 to 10 µM |  |  |  |
| COC(=O)Nc1cc(-c2cncc(-c3cc(NC(=O)c4ccc(C(F)(F)F)nc4)ccc3C)c2)ncn1 [Example 76] | < 0.1 µM | < 0.1 µM |  |  |  | 1 to 10 µM | 1 to 10 µM | 1 to 10 µM | 1 to 10 µM |

Source: patent US20260226084A1, “DUAL RAF AND TUBULIN INHIBITORS AND METHODS OF USE THEREOF” (Deciphera Pharmaceuticals, LLC, priority 2023, published 2026)
